Results as given in patent US10293020B2, “Peptide therapeutics and methods for using same” (Stealth BioTherapeutics Corp, priority 2013, dated 2019).
Non-standard residues stand in square brackets, D forms with d. No end group written: not given here. Cha = N[C@@H](CC1CCCCC1)C(=O)O

Columns and labels:
[1] = 13C MAS PRE solid-state NMR of peptide in Mn2+-bound vesicles; assay type: physicochemical
Excerpt: (§1) Large unilamellar vesicles (LUVs) with a transmembrane gradient of about −180 mV are constructed, composed of a mixture of cardiolipin (CL, 10% mol), phosphatidylcholine (PC, 50% mol), and phosphatidylethanolamine (PE, 40% mol). An electrochemical gradient is incorporated because the transloation of MPPs is known to be highly dependent on electrochemical potential. Spectra from three different peptide-lipid systems are compared: Mn^2+ free, Mn^2+ bound to one side of the vesicle, and Mn^2+ bound to both the inside and outside of the vesicle.
A pH difference is used to establish a transmembrane gradient. The membrane encapsulates 300 mM pH 4 phosphate buffer inside the vesicle and 10 mM pH 7 phosphate buffer outside to establish an electrochemical potential of −177 mV, which is reflective of the biologically encountered mitochondrial gradient of −180 mV. The existence of a three unit pH gradient is confirmed by the fluorescence response of 9-aminoacridine as previously described.
Hydrated CL/PC/PE membranes are formed by dissolving the lipids in a 95:5 benzene:ethanol mixture at an appropriate molar ratio of 0.1/0.5/0.4, respectively. The lipid mixture is lyophilized overnight. The dried lipid cake is rehydrated with 300 mM phosphate buffer at pH 4 which is heated to 85° C. The rehydrated lipid sample is incubated for 2 hours at 85° C. and vortexed periodically to produce multilamellar vesicles (MLVs). The resulting MLVs are down-sized using a mini extruder (Avanti Polar Lipids, Inc.) and passed through a 100 nm polycarbonate membrane 21 times to produce LUVs of uniform diameter of 100 nm. The size of the vesicles is confirmed by dynamic light scattering on a ZetaPALS particle size analyzer. The LUVs are dialyzed for at least 8 hours using a Slide-A-Lyzer (Thermo Fisher Scientific) to remove the low pH, high salt buffer and replace it with 10 mM phosphate buffer at pH 7 for the exterior membrane environment.
After dialysis, the MPP is added at the appropriate molar ratio (P:L=1:10 or P:L=1:40) to the LUVs and incubated overnight. The MPP-lipid mixture is centrifuged at 160 000 g for 1.5 hours to yield a hydrated pellet, which is packed into a 200 μL MAS rotor. For the Mn^2+ containing samples, the Mn^2+ solution is prepared from MnCl2.4H2O and added at 8 mol % of the lipids. To obtain one side Mn^2+ bound vesicles, the Mn^2+ solution is either added after ultracentrifugation or during extrusion, producing outside-bound and inside-bound one side Mn^2+ bound samples. For two side Mn^2+ bound vesicles, the vesicles are extruded with the appropriate percentage of Mn^2+ and had Mn^2+ added after dialysis to replace the ions lost during this process.
(§2) The spinning rate for all MAS experiments is 5 kHz, performed at 310 K. ^13C direct polarization (DP) MAS NMR spectra is decoupled with two pulse phase modulation (TPPM) at ^1H field strengths of 30 kHz. Typical radiofrequency (rf) pulse lengths are ˜5 μs for ^13C and ˜2 μs for ^1H. Static ^31P spectra are decoupled with WALTZ-16 at ^1H field strengths of 6 kHz. Typical rf pulse lengths are ˜4 μs for ^31P.
To assess the remaining two mechanisms of translocation (electroporation and guanidinium-phosphate complexation), a ^13C MAS NMR PRE method at 310 K is used. In order to assure asymmetric distribution of Mn^2+ paramagnetic ions with the new model inner mitochondrial membranes, the ion position is monitoted with the ^31P NMR signal of the lipid heagroups. Without paramagnetic ions present, the entire signal is measured from all the phospholipid headgroups. The addition of Mn^2+ to the outside of the vesicles is expected to cause signal attenuation of about half the lipids, corresponding to dephasing of the outer leaflet. When the paramagnetic ions are on both sides of the bilayer, the entire ^31P signal is expected to be killed because all lipid headgroups will be in close proximity to Mn^2+. […]

[2] = Variable temperature static 31P NMR of membrane integrity; assay type: physicochemical; conditions: P:L=1:12.5, 280 K-360 K
Excerpt: as §1, §2
Static ^31P chemical shift anisotropy NMR measurements are conducted at variable temperatures (280 K-360 K) to determine if any changes in membrane morphology or lipid transition temperatures occurr upon peptide binding. The ^31P NMR spectra of the model mitochondria membranes alone are recorded to provide a comparison to the peptide-bound membranes. […]

- insertion depth in the bilayer ([1]; P:L=1:10): inserted into both leaflets at C2
- insertion depth in the bilayer ([1]; P:L=1:40): inserted at approximately C1-C2
- leaflet distribution of the peptide ([1]; low peptide concentration, P:L=1:40): binds only to the outer leaflet
- peptide 13C peak signal intensity retained vs unbound sample ([1]; one side Mn2+ bound, P:L=1:10): ~75%
- peptide 13C peak signal retention ([1]; two side Mn2+ bound, P:L=1:10): about 50%
- effect on bilayer integrity [2]: does not alter the bilayer integrity
Substance: [Cha]R[Cha]K-NH2 [MPP]
- leaflet distribution of the peptide ([1]; high peptide concentration, P:L=1:10): distributed in both the inner and outer leaflet
